According to ChEMBL document CHEMBL1134843, “Tyrosine kinase inhibitors. 18. 6-Substituted 4-anilinoquinazolines and 4-anilinopyrido[3,4-d]pyrimidines as soluble, irreversible inhibitors of the epidermal growth factor receptor” (J Med Chem, 2001):

Key:
[1] = target: Receptor tyrosine-protein kinase erbB-2 (Homo sapiens, UniProt P04626); assay: Inhibition of heregulin-stimulated autophosphorylation of erbB2 in MDA-MB 453 cells; format: cell-based
[2] = tested on: A-431; assay: In vivo activity in A431 tumor bearing mice, ratio of treated and control tumor mass day 26; format: functional
[3] = tested on: NCI-H125; assay: In vivo activity in H125 tumor bearing mice, relative time required for treated and control tumors to reach 750 mg (schedule 15-29 days); format: functional, Mus musculus
[4] = tested on: A-431; assay: In vivo activity in A431 tumor bearing mice, maximum weight loss days 12-26; format: functional
[5] = tested on: MCF7; assay: In vivo activity in MCF-7 tumor bearing mice, ratio of treated and control tumor mass day 31; format: functional
[6] = tested on: MCF7; assay: In vivo activity in MCF-7 tumor bearing mice, maximum dose (schedule 17-31 days); format: functional
[7] = tested on: A-431; assay: In vivo activity in A431 tumor bearing mice, relative time required for treated and control tumors to reach 750 mg (schedule 12-26 days); format: functional
[8] = tested on: NCI-H125; assay: In vivo activity in H125 tumor bearing mice, maximum dose (schedule 15-29 days); format: functional, Mus musculus
[9] = tested on: MCF7; assay: In vivo activity in MCF-7 tumor bearing mice, relative time required for treated and control tumors to reach 750 mg (schedule 17-31 days); format: functional
[10] = tested on: NCI-H125; assay: In vivo activity in H125 tumor bearing mice, maximum weight loss days 15-29; format: functional, Mus musculus
[11] = tested on: NCI-H125; assay: In vivo activity in H125 tumor bearing mice, ratio of treated and control tumor mass day 29; format: functional, Mus musculus
[12] = tested on: A-431; assay: In vivo activity in A431 tumor bearing mice, maximum dose (schedule 12-26 days); format: functional
[13] = tested on: MCF7; assay: In vivo activity in MCF-7 tumor bearing mice, relative time required for treated and control tumors to reach 750 mg (schedule 11-25 days); format: functional
[14] = tested on: A-431; assay: In vivo activity in A431 tumor bearing mice, maximum dose (schedule 10-24 days); format: functional
[15] = tested on: MCF7; assay: In vivo activity in MCF-7 tumor bearing mice, maximum dose (schedule 11-25 days); format: functional
[16] = tested on: MCF7; assay: In vivo activity in MCF-7 tumor bearing mice, maximum weight loss days 11-25; format: functional
[17] = tested on: MCF7; assay: In vivo activity in MCF-7 tumor bearing mice, ratio of treated and control tumor mass day 25; format: functional
[18] = target: Epidermal growth factor receptor (Homo sapiens, UniProt P00533)
Sequence of Epidermal growth factor receptor (P00533 whole entry): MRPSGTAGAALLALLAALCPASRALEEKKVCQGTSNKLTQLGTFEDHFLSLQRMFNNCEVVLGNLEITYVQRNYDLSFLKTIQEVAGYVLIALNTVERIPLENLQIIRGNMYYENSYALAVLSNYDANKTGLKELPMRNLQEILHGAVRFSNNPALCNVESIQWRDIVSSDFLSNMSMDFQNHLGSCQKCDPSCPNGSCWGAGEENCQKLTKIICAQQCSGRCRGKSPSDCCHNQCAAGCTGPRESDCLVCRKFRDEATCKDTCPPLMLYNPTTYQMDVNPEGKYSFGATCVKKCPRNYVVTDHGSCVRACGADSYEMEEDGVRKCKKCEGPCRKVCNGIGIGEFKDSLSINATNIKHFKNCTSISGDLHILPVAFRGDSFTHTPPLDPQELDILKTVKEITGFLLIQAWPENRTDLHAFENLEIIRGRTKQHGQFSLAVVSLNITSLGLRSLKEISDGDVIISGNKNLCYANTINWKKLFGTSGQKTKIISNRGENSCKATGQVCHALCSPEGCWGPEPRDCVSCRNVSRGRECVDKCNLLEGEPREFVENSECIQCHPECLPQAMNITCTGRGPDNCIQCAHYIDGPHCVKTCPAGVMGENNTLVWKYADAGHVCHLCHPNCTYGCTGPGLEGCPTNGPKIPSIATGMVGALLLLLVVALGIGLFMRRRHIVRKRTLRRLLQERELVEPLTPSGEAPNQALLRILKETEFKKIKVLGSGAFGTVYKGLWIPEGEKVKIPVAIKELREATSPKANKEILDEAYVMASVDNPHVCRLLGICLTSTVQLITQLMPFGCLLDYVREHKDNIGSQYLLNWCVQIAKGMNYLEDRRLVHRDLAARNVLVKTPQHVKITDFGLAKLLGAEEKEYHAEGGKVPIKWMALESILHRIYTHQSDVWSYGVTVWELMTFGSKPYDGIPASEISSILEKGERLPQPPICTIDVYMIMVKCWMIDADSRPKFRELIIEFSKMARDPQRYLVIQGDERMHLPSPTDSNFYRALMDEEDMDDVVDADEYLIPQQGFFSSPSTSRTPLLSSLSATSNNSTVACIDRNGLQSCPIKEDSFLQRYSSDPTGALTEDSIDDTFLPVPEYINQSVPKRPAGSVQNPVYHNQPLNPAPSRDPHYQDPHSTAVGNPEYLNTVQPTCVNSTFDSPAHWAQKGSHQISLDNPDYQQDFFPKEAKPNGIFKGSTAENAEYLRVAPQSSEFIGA
Description: Inhibition of phosphorylation of a polyglutamic acid/tyrosine random copolymer by EGFR enzyme (from human A431 carcinoma cell vesicles)

Sequence of Receptor tyrosine-protein kinase erbB-2 (P04626 whole entry): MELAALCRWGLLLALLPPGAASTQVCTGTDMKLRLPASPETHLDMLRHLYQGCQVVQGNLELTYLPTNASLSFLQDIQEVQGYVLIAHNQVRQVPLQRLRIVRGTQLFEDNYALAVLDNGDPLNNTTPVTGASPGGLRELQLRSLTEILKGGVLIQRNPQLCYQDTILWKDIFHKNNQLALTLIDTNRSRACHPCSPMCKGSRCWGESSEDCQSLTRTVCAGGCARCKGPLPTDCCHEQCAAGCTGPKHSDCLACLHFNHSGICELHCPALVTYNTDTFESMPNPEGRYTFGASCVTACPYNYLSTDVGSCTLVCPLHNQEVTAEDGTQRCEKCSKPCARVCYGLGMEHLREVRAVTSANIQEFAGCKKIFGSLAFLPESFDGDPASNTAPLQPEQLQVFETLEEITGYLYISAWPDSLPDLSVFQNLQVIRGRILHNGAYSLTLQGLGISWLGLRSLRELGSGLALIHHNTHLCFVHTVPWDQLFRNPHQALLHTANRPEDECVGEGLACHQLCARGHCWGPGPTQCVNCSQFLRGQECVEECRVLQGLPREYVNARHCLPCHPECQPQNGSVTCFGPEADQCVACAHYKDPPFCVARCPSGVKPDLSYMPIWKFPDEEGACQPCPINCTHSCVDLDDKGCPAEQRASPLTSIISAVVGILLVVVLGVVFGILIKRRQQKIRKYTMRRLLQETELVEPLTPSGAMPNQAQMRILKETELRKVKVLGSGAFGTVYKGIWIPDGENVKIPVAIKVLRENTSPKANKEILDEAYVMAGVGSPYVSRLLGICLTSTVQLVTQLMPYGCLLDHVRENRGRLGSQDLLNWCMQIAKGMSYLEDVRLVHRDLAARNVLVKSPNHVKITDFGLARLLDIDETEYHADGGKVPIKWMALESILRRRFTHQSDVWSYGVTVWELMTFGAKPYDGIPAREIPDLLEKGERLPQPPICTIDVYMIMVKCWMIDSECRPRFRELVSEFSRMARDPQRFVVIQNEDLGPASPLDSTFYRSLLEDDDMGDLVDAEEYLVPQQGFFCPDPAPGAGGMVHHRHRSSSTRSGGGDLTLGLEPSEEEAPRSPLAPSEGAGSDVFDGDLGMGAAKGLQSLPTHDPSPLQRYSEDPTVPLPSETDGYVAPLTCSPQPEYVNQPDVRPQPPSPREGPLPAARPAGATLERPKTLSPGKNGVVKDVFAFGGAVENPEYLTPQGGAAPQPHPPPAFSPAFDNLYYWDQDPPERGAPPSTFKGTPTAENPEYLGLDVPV

O=C(/C=C/C(=O)Nc1cc2c(Nc3cccc(Br)c3)ncnc2cn1)NCCCN1CCOCC1 was tested, and the IC50 [1] was 5 nM.

Work on O=C(/C=C/C(=O)Nc1cc2c(Nc3ccc(F)c(Cl)c3)ncnc2cn1)NCCCN1CCOCC1 yielded a T/C [2] of 70%, a T-C [3] of 7.9 days and a Weight change [4] of -0.1 g. It also gave a T/C [5] of 124%, an HDT [6] of 200 mg/kg and a T-C [7] of 5.2 days. The HDT [8] was 200 mg/kg, the IC50 [1] was 24 nM and the T-C [9] was 6.8 days. It also gave a Weight change [10] of -0.3 g, a T/C [11] of 23% and an HDT [12] of 200 mg/kg.

For C=CC(=O)N(C)c1cc2c(Nc3cccc(Br)c3)ncnc2cn1, the T/C [2] was 62%, the T-C [13] was 1.5 days and the T-C [3] was 7.3 days. The Weight change [4] was -0.1 g, the HDT [14] was 200 mg/kg and the T-C [7] was 5.2 days. For the same compound, the HDT [15] was 200 mg/kg, the HDT [8] was 200 mg/kg and the Weight change [10] was -0.4 g. It also gave a T/C [11] of 56%, a Weight change [16] of -0.3 g and a T/C [17] of 88%.

CN(C)CCCNC(=O)/C=C/C(=O)Nc1cc2c(Nc3cccc(Br)c3)ncnc2cn1 was tested, and the IC50 [1] was 13 nM.

In the case of O=S(=O)(CCO)c1cc2c(Nc3cccc(Br)c3)ncnc2cn1, the IC50 [18] is reported as 93.5 nM.

For O=C(/C=C/C(=O)Nc1cc2c(Nc3cccc(Br)c3)ncnc2cn1)NCCCn1ccnc1, the IC50 [1] was 8.1 nM.

CN(C)CCCNC(=O)/C=C/C(=O)Nc1ccc2ncnc(Nc3cccc(Br)c3)c2c1 gave an IC50 [1] of 207 nM.

With CCN(CC)CCCNC(=O)/C=C/C(=O)Nc1cc2c(Nc3cccc(Br)c3)ncnc2cn1 the IC50 [1] was 14 nM.
